≈ marks a conversion by molar mass, not a printed value. Where “and” joins values, the source holds several entries; their conditions need not be identical. Equal entries are not always repeated. Calls of active or inactive are those of the source. The rule behind the calls is not given here.
How the values were obtained:
[1] = test system: Staphylococcus aureus; experiment: Antibacterial activity against Staphylococcus aureus ATCC 25923 assessed as reduction in bacterial growth incubated for 18 to 20 hrs by broth microdilution assay; assay type: functional; conditions: time 18-20 hrs
[2] = test system: Staphylococcus aureus; experiment: Synergistic antibacterial activity against methicillin-resistant Staphylococcus aureus ATCC 43300 assessed as fractional inhibitory concentration index incubated for 18 to 20 hrs in presence of vancomycin by checkboard assay; assay type: functional; conditions: time 18-20 hrs
[3] = test system: Enterococcus faecalis; experiment: Synergistic antibacterial activity against Enterococcus faecalis ATCC 29212 incubated for 18 to 20 hrs in presence of ciprofloxacin by checkboard assay; assay type: functional; conditions: time 18-20 hrs
[4] = Selectivity index, ratio of CC50 for cytotoxicity against human THP-1 cells assessed as reduction in cell viability to MIC for antibacterial activity against methicillin-resistant Staphylococcus aureus assessed as reduction in bacterial growth; assay type: toxicity, cell-based; conditions: read-out: Selectivity Index
[5] = test system: Enterococcus faecalis; experiment: Synergistic antibacterial activity against Enterococcus faecalis ATCC 29212 incubated for 18 to 20 hrs in presence of linezolid by checkboard assay; assay type: functional; conditions: time 18-20 hrs
[6] = test system: Staphylococcus aureus; experiment: Antibiofilm activity against Staphylococcus aureus ATCC 25923 assessed as inhibition of biofilm biomass at 100 uM incubated for 18 to 20 hrs by crystal violet staining based assay; assay type: functional; conditions: time 18-20 hrs
[7] = test system: Enterococcus faecalis; experiment: Synergistic antibacterial activity against Enterococcus faecalis ATCC 29212 assessed as ciprofloxacin MIC incubated for 18 to 20 hrs by checkboard assay; assay type: functional; conditions: time 18-20 hrs
[8] = test system: Staphylococcus epidermidis; experiment: Antibacterial activity against […] Staphylococcus epidermidis RP62A assessed as reduction in bacterial growth incubated for 18 to 20 hrs by broth microdilution assay; assay type: functional; conditions: time 18-20 hrs
[9] = test system: Staphylococcus aureus; experiment: Bactericidal activity against Staphylococcus aureus ATCC 25923 assessed as log reduction in colony forming units at 4 to 8 times MIC measured after 1 to 2 hrs by time kill-assay; assay type: functional; conditions: time 1-2 hrs
[10] = Selectivity index, ratio of CC50 for cytotoxicity against human THP-1 cells assessed as reduction in cell viability to MIC for antibacterial activity against methicillin-resistant Staphylococcus epidermidis assessed as reduction in bacterial growth; assay type: toxicity, cell-based; conditions: read-out: Selectivity Index
[11] = Selectivity index, ratio of CC50 for cytotoxicity against human THP-1 cells assessed as reduction in cell viability to MIC for antibacterial activity against methicillin-resistant Enterococcus faecium assessed as reduction in bacterial growth; assay type: toxicity, cell-based; conditions: read-out: Selectivity Index
[12] = test system: Staphylococcus aureus; experiment: Synergistic antibacterial activity against Staphylococcus aureus ATCC 25923 assessed as gentamicin MIC incubated for 18 to 20 hrs by checkboard assay; assay type: functional; conditions: time 18-20 hrs
[13] = test system: Staphylococcus aureus; experiment: Synergistic antibacterial activity against methicillin-resistant Staphylococcus aureus ATCC 43300 assessed as gentamicin MIC incubated for 18 to 20 hrs by checkboard assay; assay type: functional; conditions: time 18-20 hrs
[14] = test system: Enterococcus faecalis; experiment: Synergistic antibacterial activity against Enterococcus faecalis ATCC 29212 assessed as gentamicin MIC incubated for 18 to 20 hrs by checkboard assay; assay type: functional; conditions: time 18-20 hrs
[15] = test system: Pseudomonas aeruginosa; experiment: Antibacterial activity against Pseudomonas aeruginosa ATCC 15442 assessed as reduction in bacterial growth incubated for 18 to 20 hrs by broth microdilution assay; assay type: functional; conditions: time 18-20 hrs
[16] = test system: Staphylococcus aureus; experiment: Antimicrobial activity against Staphylococcus aureus ATCC 25923 infected in Caenorhabditis elegans AU37 assessed as reduction in bacterial burden at 20 uM incubated for 18 hrs; assay type: functional; parameters: scale not given: the % may be the effect or the level left
[17] = test system: Enterococcus faecalis; experiment: Synergistic antibacterial activity against Enterococcus faecalis ATCC 29212 assessed as fractional inhibitory concentration index incubated for 18 to 20 hrs in presence of gentamicin by checkboard assay; assay type: functional; conditions: time 18-20 hrs
[18] = test system: Cell membrane; experiment: Induction of cytoplasmic membrane depolarization in Staphylococcus aureus ATCC 25923 assessed as increase in fluorescence intensity at 4 times MIC measured for 30 mins by DiSC3(5) dye based fluorescence method; assay type: cell membranes
[19] = test system: Staphylococcus aureus; experiment: Synergistic antibacterial activity against methicillin-resistant Staphylococcus aureus ATCC 43300 incubated for 18 to 20 hrs in presence of linezolid by checkboard assay; assay type: functional; conditions: time 18-20 hrs
[20] = test system: Staphylococcus aureus; experiment: Bactericidal activity against methicillin-resistant Staphylococcus aureus assessed as reduction in bacterial growth at 0.5 to 8 times MIC incubated for 24 hrs by time-kill assay; assay type: functional
[21] = test system: Staphylococcus aureus; experiment: Synergistic antibacterial activity against Staphylococcus aureus ATCC 25923 assessed as vancomycin MIC incubated for 18 to 20 hrs by checkboard assay; assay type: functional; conditions: time 18-20 hrs
[22] = test system: Staphylococcus aureus; experiment: Bactericidal activity against Staphylococcus aureus ATCC 25923 assessed as reduction in bacterial growth at 0.5 to 8 times MIC incubated for 24 hrs by time-kill assay; assay type: functional
[23] = test system: Staphylococcus aureus; experiment: Synergistic antibacterial activity against methicillin-resistant Staphylococcus aureus ATCC 43300 incubated for 18 to 20 hrs in presence of vancomycin by checkboard assay; assay type: functional; conditions: time 18-20 hrs
[24] = test system: Staphylococcus aureus; experiment: Bactericidal activity against Staphylococcus aureus ATCC 25923 at 4 times MIC measured after 6 hrs by time kill-assay; assay type: functional, organism-based
[25] = test system: Staphylococcus aureus; experiment: Synergistic antibacterial activity against methicillin-resistant Staphylococcus aureus ATCC 43300 assessed as vancomycin MIC incubated for 18 to 20 hrs by checkboard assay; assay type: functional; conditions: time 18-20 hrs
[26] = test system: Staphylococcus aureus; experiment: Synergistic antibacterial activity against methicillin-resistant Staphylococcus aureus ATCC 43300 assessed as linezolid MIC incubated for 18 to 20 hrs by checkboard assay; assay type: functional; conditions: time 18-20 hrs
[27] = test system: Enterococcus faecalis; experiment: Synergistic antibacterial activity against Enterococcus faecalis ATCC 29212 incubated for 18 to 20 hrs in presence of gentamicin by checkboard assay; assay type: functional; conditions: time 18-20 hrs
[28] = test system: Staphylococcus aureus; experiment: Synergistic antibacterial activity against Staphylococcus aureus ATCC 25923 assessed as fractional inhibitory concentration index incubated for 18 to 20 hrs in presence of vancomycin by checkboard assay; assay type: functional; conditions: time 18-20 hrs
[29] = test system: Staphylococcus aureus; experiment: Synergistic antibacterial activity against methicillin-resistant Staphylococcus aureus ATCC 43300 assessed as fractional inhibitory concentration index incubated for 18 to 20 hrs in presence of linezolid by checkboard assay; assay type: functional; conditions: time 18-20 hrs
[30] = test system: A549; experiment: Cytotoxicity against human A549 cells assessed as reduction in cell viability at 100 uM incubated for 24 hrs by resazurin staining based analysis relative to control; assay type: functional
[31] = Toxicity in Caenorhabditis elegans AU37 assessed as worms survival at 10 uM measured after 72 hrs
[32] = test system: Acinetobacter baumannii; experiment: Antibacterial activity against Acinetobacter baumannii NCTC 13423 assessed as reduction in bacterial growth incubated for 18 to 20 hrs by broth microdilution assay; assay type: functional; conditions: time 18-20 hrs
[33] = test system: Staphylococcus aureus; experiment: Antibiofilm activity against Staphylococcus aureus ATCC 25923 assessed as inhibition of biofilm viability at 100 uM incubated for 18 to 20 hrs by resazurin staining based assay; assay type: functional; conditions: time 18-20 hrs
[34] = test system: Staphylococcus aureus; experiment: Synergistic antibacterial activity against methicillin-resistant Staphylococcus aureus ATCC 43300 incubated for 18 to 20 hrs in presence of ciprofloxacin by checkboard assay; assay type: functional; conditions: time 18-20 hrs
[35] = Hemolytic activity in mouse RBC assessed as hemolysis at 250 uM incubated for 1 hr; assay type: toxicity, cell-based, Erythrocyte; conditions: mouse red blood cells (erythrocytes), read-out: Activity
[36] = test system: Enterococcus faecalis; experiment: Bactericidal activity against Enterococcus faecalis ATCC 29212 assessed as reduction in bacterial growth at 0.5 to 8 times MIC incubated for 24 hrs by time-kill assay; assay type: functional
[37] = test system: Staphylococcus aureus; experiment: Synergistic antibacterial activity against Staphylococcus aureus ATCC 25923 incubated for 18 to 20 hrs in presence of gentamicin by checkboard assay; assay type: functional; conditions: time 18-20 hrs
[38] = test system: Enterococcus faecalis; experiment: Synergistic antibacterial activity against Enterococcus faecalis ATCC 29212 assessed as fractional inhibitory concentration index incubated for 18 to 20 hrs in presence of ciprofloxacin by checkboard assay; assay type: functional; conditions: time 18-20 hrs

In the case of O=C(O)c1cc2cc(OCc3ccc(C4CCCCC4)c(C(F)(F)F)c3)ccc2[nH]1, the MIC [1] is reported as 5 µM and 2.1 µg/mL, the “fractional inhibitory concentration index (FICI)” value [2] is reported as 2 and the MIC [3] is reported as 1.25 µM. For the same compound, the selectivity ratio [4] was over 12, the MIC [5] was 5 µM and the inhibition at 100 µM [6] was over 90%. The MIC [7] was 1.25 µM, the MIC [8] was 2.5 µM (≈ 1.04 µg/mL) and the “log(activity)” value [9] was over 3. For the same compound, the selectivity ratio [10] was over 12, the selectivity ratio [11] was over 12 and the MIC [12] was 0.5 µg/mL. The MIC [13] was 32 µg/mL, the MIC [14] was 1 µg/mL and the MIC [15] was over 200 µM. The Activity [16] was over 85%, the “fractional inhibitory concentration index (FICI)” value [17] was 0.375 and the Activity [18] was “inactive”. For the same compound, the MIC [19] was 1.25 µM, the MBC [20] was 5 µM (≈ 2.09 µg/mL) and the MIC [21] was 0.625 µM. For the same compound, the MBC [22] was 5 µM (≈ 2.09 µg/mL), the MIC [23] was 2.5 µM and the Activity [24] was “Active”. The MIC [25] was 1.25 µM, the MIC [26] was 5 µM and the MIC [27] was 1.25 µM. For the same compound, the “fractional inhibitory concentration index (FICI)” value [28] was 0.75, the “fractional inhibitory concentration index (FICI)” value [29] was 1 and the Activity [30] was about 20%. The Activity [31] was “Non-Toxic”, the MIC [32] was over 200 µM and the inhibition at 100 µM [33] was over 90%. The MIC [34] was 1.25 µM, the hemolysis at 1 h, 250 µM [35] was 100% and the MBC [36] was 5 µM (≈ 2.09 µg/mL). For the same compound, the MIC [37] was 1.25 µM and the “fractional inhibitory concentration index (FICI)” value [38] was 0.75.
